Source: the NIST ThermoML archive (doi:10.1016/j.jct.2012.08.018)
Numbers after ± are expanded uncertainties.

Test: molar enthalpy of vaporization or sublimation
Details: 298.15 K; Crystal; Static calorimetry

| SMILES | molar enthalpy [kcal/mol] |
| --- | --- |
| COC(N)=O [carbamic acid, methyl ester] | 17.6 ± 0.311 |
| CCOC(N)=O [ethyl carbamate] | 18.6 ± 0.335 |
